Laboratory results reported in publication PMC5809414, “Physician-initiated clinical study of limb ulcers treated with a functional peptide, SR-0379: from discovery to a randomized, double-blind, placebo-controlled trial” (NPJ Aging and Mechanisms of Disease, 2018).
Several values for one entry are separate records, joined by “and”; a condition that tells them apart may be missing. Identical values can stand only once. Where a SMILES comes first, the peptide text is derived from it. [ ]: non-standard residue; d: D form.

What was measured:
[1] = Safety evaluation (adverse events) in the clinical study; format: in vivo, human
Method: The primary outcome was the rate of wound size reduction at 4 weeks after the first treatment compared with pre-treatment wound size. Additionally, the following secondary endpoints were measured at 4 weeks after the first treatment and compared with pre-treatment status: time to wound closure; 50% wound size reduction ratio; quantification of Pseudomonas aeruginosa, Staphylococcus aureus, MRSA, and Streptococcus pyogenes; and overall evaluated ulcer improvement. Ulcer size was quantified based on skin ulcer pictures according to a defined procedure using ImageJ software and calculated as the percent change. We also used the DESIGN-R score index, which is calculated based on six components (exudate, size, infection/inflammation, granulation tissue, necrotic tissue, and pocket size), as a tool to score pressure ulcer severity.[23] Depth was excluded from the calculation. The total score was calculated by weighting the score of each item; a high score indicates greater severity. The safety of SR-0379 was evaluated during the treatment period (28 days) every 7 days and post-treatment (7 days) according to the Common Terminology Criteria for Adverse Events (version 4.0).

leg ulcers = assay: Phase I/IIa randomized, double-blind, placebo-controlled study: wound size, closure, DESIGN-R, overall improvement; format: in vivo, human; settings: for skin ulcer rate of reduction at the final evaluation (4th week or discontinuation): vs pre-treatment wound size, mean ± SD; for skin ulcer rate of reduction at the final evaluation (4th week or discontinuation) / Overall improvement, Mild: number of patients / Overall improvement, Moderate: number of patients / Overall improvement, No change: number of patients / Overall improvement, Worse: number of patients / Skin ulcer size, 2 weeks after treatment (mean ± SD) / Skin ulcer size, Post-treatment (mean ± SD) / Wound closure, Yes: number of patients (%) / DESIGN-R total score, Post-mean (SD) / Overall improvement, Significant: number of patients: n = 3; for DESIGN-R total score, Pre-mean (SD): n = 3, baseline; for DESIGN-R total score, Pre-mean (SD) / DESIGN-R total score, Post-mean (SD): depth excluded, 0 (healed) to 66; for Overall improvement, Significant: number of patients: evaluation by investigators
Method: GMP-grade SR-0379 peptide was generated by the American Peptide Company (Torrance, CA, USA). The peptide was dissolved in a physiological salt solution, and spray-type containers were charged with 10 mL of SR-0379 solution under GMP conditions by Nagase Medical Co. Ltd. (Itami, Hyogo, Japan). A total of 0.05 mL of SR-0379 solution was administered per spray using this container. According to the protocol, each patient received 0.25 mL of SR-0379 solution over five sprays once per day for 28 days.
The clinical trial was conducted as an investigator-initiated, phase I/IIa, randomized, double-blind, placebo-controlled trial at five hospitals (Osaka University Hospital, Osaka; Chiba University Hospital, Chiba; Asano-Kanamachi Clinic, Tokyo; Medical Plaza Shinozakieki Nishiguchi, Tokyo; and Kasukabe Chuo General Hospital, Saitama) in Japan. Twelve patients were randomized into four groups and treated with 0.02%, 0.1%, or 0.5% SR-0379 or placebo treatment. The inclusion criteria for this clinical trial were: (1) adult (age≧20 years), (2) a diagnosis of diabetic ulcer or limb ulcer (artery or venous ulcer); and (3) wound size <6 cm in diameter. Exclusion criteria is (1) infection to be cured with antibiotics, (2) deep ulcer with reaching bone tissue, (3) skin ulcer with malignant tumor, (4) severe edema around skin ulcer, (5) patients with malignant tumor, (6) patients with severe heart failure, (7) patients with severe liver, kidney, and blood dysfunction, (8) malnutrition (serum albumin ≦2 g/dL), (9) poor general condition due to severe systemic infection, (10) poor control of hyperglycemia (HbA1c ≧9.0%), (11) pregnant women, and men or women who disagreed to avoid pregnancy during clinical trial period, (12) patients who changed from an oral to an intravenous drug to regulate blood flow (i.e., prostaglandin E1, prostacyclin I2) from 2 weeks before SR-0379 or placebo treatment, (13) surgical procedure for skin ulcer from 2 weeks before SR-0379 or placebo treatment, (14) attendance to other clinical trial from 12 weeks before SR-0379 or placebo treatment, and (15) judgment as an inappropriate patient by principle investigator. The study protocol was approved by the institutional review board of each hospital. Patients gave written informed consent before enrollment.
Twelve patients were randomized into four groups and treated with 0.02%, 0.1,% or 0.5% SR-0379 or placebo treatment. The allocation was generated by a computer program before starting the initial enrollment, and the allocation coordinator concealed the allocation information until the last patient finished. The placebo drug was indistinguishable in terms of appearance. The trial drugs were distributed to each hospital according to the allocation schedule for each patient. All study personnel and patients were masked to treatment group allocation.
SR-0379 (0.02%, 0.1%, and 0.5%) or placebo was topically administered after cleaning with soap once per day for 28 days. After treatment, the wound was covered with a piece of gauze. […] No topical wound healing drugs were used in combination with SR-0379 or placebo for the same skin ulcer, and the topical use of FGF2 (trafermin) was prohibited starting 2 weeks before treatment through the final treatment.
Upon study entry, clinical assessments, skin ulcer evaluations, blood and urine tests, chest radiographs, and ECGs were performed 1 week before treatment. Prior to the first treatment, clinical assessments and skin ulcer evaluations were performed, and plasma SR-0379 levels were measured at 15 and 60 min after the first treatment. After treatment, clinical assessments, skin ulcer evaluation, blood and urine tests, and ECGs were performed, and plasma SR-0379 levels were measured at 15 and 60 min after the final treatment. During the follow-up period (1 week after treatment), patients received appropriate treatment, including FGF2 (trafermin). […]

SMILES: CC[C@H](C)[C@H](NC(=O)[C@H](CC(C)C)NC(=O)[C@H](CCCCN)NC(=O)[C@H](CC(C)C)NC(=O)[C@@H](N)CCSC)C(=O)N[C@@H](Cc1ccccc1)C(=O)N[C@@H](CC(C)C)C(=O)N[C@@H](Cc1c[nH]cn1)C(=O)N[C@@H](CCCNC(=N)N)C(=O)N[C@@H](CC(C)C)C(=O)N[C@@H](CCCCN)C(=O)N[C@@H](CCCNC(=N)N)C(=O)N[C@@H](CCSC)C(=O)N[C@@H](CCCNC(=N)N)C(=O)N[C@@H](CCCCN)C(=O)N[C@@H](CCCNC(=N)N)C(=O)N[C@@H](CC(C)C)C(=O)N[C@H](CCCCN)C(=O)N[C@@H](CCCNC(=N)N)C(=O)N[C@@H](CCCCN)C(=O)O [SR-0379] (H-MLKLIFLHRLKRMRKRL[dK]RK-OH; N-terminus and C-terminus assumed)
- Adverse event: Outcome ([1]; 0.5% SR-0379, person, pneumonia): Death
- Adverse event: Causality ([1]; human, in vivo): No
- local adverse events such as itching, rash, or pain during treatment ([1]; human, in vivo): no local adverse events
- relation of all adverse events to SR-0379 treatment ([1]; human, in vivo): unrelated
- Size reduction (percent decrease) of skin ulcers, mean (leg ulcers; 0.02% SR-0379, 2 weeks after treatment): -3.157%
- Size decrease, single patient (leg ulcers; 0.02% SR-0379, diabetic ulcer, foot (lateral malleolus), Werner Syndrome patient): 61.45%
- Size decrease, single patient (leg ulcers; 0.02% SR-0379, diabetic ulcer, low leg): 75.00%
- Size decrease, single patient (leg ulcers; 0.02% SR-0379, ischemic ulcer, finger): -2.27%
- skin ulcer rate of reduction at the final evaluation (4th week or discontinuation) (leg ulcers; 0.02% SR-0379 topical once per day for 28 days): 44.73 ± 41.26% and 44.727%
- Overall improvement, Mild: number of patients (leg ulcers; 0.02% group): 1
- Overall improvement, Moderate: number of patients (leg ulcers; 0.02% group): 1
- Overall improvement, No change: number of patients (leg ulcers; 0.02% group): 0
- Overall improvement, Worse: number of patients (leg ulcers; 0.02% group): 1
- Skin ulcer size, 2 weeks after treatment (mean ± SD) (leg ulcers; 0.02% group): 0.777 ± 0.783
- Skin ulcer size, Post-treatment (mean ± SD) (leg ulcers; 0.02% group): 0.563 ± 0.698
- Wound closure, Yes: number of patients (%) (leg ulcers; 0.02% group): 0 (0%)
- DESIGN-R total score, Pre-mean (SD) (leg ulcers; 0.02% group): 9.3 (4.7)
- DESIGN-R total score, Post-mean (SD) (leg ulcers; 0.02% group): 4.3 (1.5)
- Overall improvement, Significant: number of patients (leg ulcers; 0.02% group): 1
- Size reduction (percent decrease) of skin ulcers, mean (leg ulcers; 0.1% SR-0379, 2 weeks after treatment): 38.36%
- Size decrease, single patient (leg ulcers; 0.1% SR-0379, diabetic ulcer, foot (heel), Werner Syndrome patient): 34.93%
- Size decrease, single patient (leg ulcers; 0.1% SR-0379, diabetic ulcer, foot, patient with skin abrasion): 87.50%
- Size decrease, single patient (leg ulcers; 0.1% SR-0379, ischemic ulcer, finger): 82.32%
- skin ulcer rate of reduction at the final evaluation (4th week or discontinuation) (leg ulcers; 0.1% SR-0379 topical once per day for 28 days): 68.25 ± 28.98% and 68.247%
- Overall improvement, Mild: number of patients (leg ulcers; 0.1% group): 1
- Overall improvement, Moderate: number of patients (leg ulcers; 0.1% group): 1
- Overall improvement, No change: number of patients (leg ulcers; 0.1% group): 0
- Overall improvement, Worse: number of patients (leg ulcers; 0.1% group): 0
- Skin ulcer size, 2 weeks after treatment (mean ± SD) (leg ulcers; 0.1% group): 0.320 ± 0.381
- Skin ulcer size, Post-treatment (mean ± SD) (leg ulcers; 0.1% group): 0.473 ± 0.488
- Wound closure, Yes: number of patients (%) (leg ulcers; 0.1% group): 0 (0%)
- DESIGN-R total score, Pre-mean (SD) (leg ulcers; 0.1% group): 9.0 (1.0)
- DESIGN-R total score, Post-mean (SD) (leg ulcers; 0.1% group): 5.3 (4.0)
- Overall improvement, Significant: number of patients (leg ulcers; 0.1% group): 1
- Size reduction (percent decrease) of skin ulcers, mean (leg ulcers; 0.5% SR-0379, 2 weeks after treatment): 14.443%
- Size decrease, single patient (leg ulcers; 0.5% SR-0379, diabetic ulcer, foot, complete ulcer closure): 100%
- Size decrease, single patient (leg ulcers; 0.5% SR-0379, venous ulcer, low leg): 14.84%
- skin ulcer rate of reduction at the final evaluation (4th week or discontinuation) (leg ulcers; 0.5% SR-0379 topical once per day for 28 days): 71.61 ± 49.17% and 71.613%
- Overall improvement, Mild: number of patients (leg ulcers; 0.5% group): 0
- Overall improvement, Moderate: number of patients (leg ulcers; 0.5% group): 3
- Overall improvement, No change: number of patients (leg ulcers; 0.5% group): 0
- Overall improvement, Worse: number of patients (leg ulcers; 0.5% group): 0
- Skin ulcer size, 2 weeks after treatment (mean ± SD) (leg ulcers; 0.5% group): 1.910 ± 3.179
- Skin ulcer size, Post-treatment (mean ± SD) (leg ulcers; 0.5% group): 1.760 ± 3.048
- DESIGN-R total score, Pre-mean (SD) (leg ulcers; 0.5% group): 12.0 (7.2)
- DESIGN-R total score, Post-mean (SD) (leg ulcers; 0.5% group): 5.3 (5.1)
- Overall improvement, Significant: number of patients (leg ulcers; 0.5% group): 0
